Assay results reported in ChEMBL document CHEMBL4145516, “Rational design of novel TLR4 ligands by in silico screening and their functional and structural characterization in vitro” (2018).
Active and inactive are the calls of the source. No cut-off for these calls is given here.

Columns and labels:
[1] = tested on: PBMC; assay: Immunostimulatory activity in human PBMC assessed as increase in IL-6 release at 10 uM after 24 hrs by ELISA; format: functional
[2] = molecular target: Toll-like receptor 4 (Homo sapiens) (UniProt O00206); assay: Agonist activity at human TLR4 expressed in HEK-blue cells coexpressing MD2 at 500 ng/ml by SEAP reporter gene assay relative to MPLA; format: cell-based
[3] = molecular target: Toll-like receptor 4 (Homo sapiens) (UniProt O00206); assay: Agonist activity at human TLR4 expressed in HEK-blue cells coexpressing MD2 at 1.11 10^-5M by SEAP reporter gene assay relative to MPLA; format: cell-based
[4] = molecular target: Toll-like receptor 4 (Homo sapiens) (UniProt O00206); assay: Agonist activity at human TLR4 expressed in HEK-blue cells coexpressing MD2 at 1.11 10^-5M by SEAP reporter gene assay; format: cell-based
[5] = molecular target: Toll-like receptor 4 (Homo sapiens) (UniProt O00206); assay: Agonist activity at human TLR4 expressed in HEK-blue cells coexpressing MD2 at 1.07 10^-5M by SEAP reporter gene assay relative to MPLA; format: cell-based
[6] = molecular target: Toll-like receptor 4 (Homo sapiens) (UniProt O00206); assay: Agonist activity at human TLR4 expressed in HEK-blue cells coexpressing MD2 at 1.07 10^-5M by SEAP reporter gene assay; format: cell-based
[7] = molecular target: Toll-like receptor 4 (Homo sapiens) (UniProt O00206); assay: Agonist activity at human TLR4 expressed in HEK-blue cells coexpressing MD2 at 0.99 10^-5M by SEAP reporter gene assay; format: cell-based
[8] = molecular target: Toll-like receptor 4 (Homo sapiens) (UniProt O00206); assay: Agonist activity at human TLR4 expressed in HEK-blue cells coexpressing MD2 at 1.15 10^-5M by SEAP reporter gene assay; format: cell-based
[9] = molecular target: Toll-like receptor 4 (Homo sapiens) (UniProt O00206); assay: Agonist activity at human TLR4 expressed in HEK-blue cells coexpressing MD2 at 1.06 10^-5M by SEAP reporter gene assay relative to MPLA; format: cell-based

Toll-like receptor 4 (Homo sapiens), sequence (O00206 whole entry): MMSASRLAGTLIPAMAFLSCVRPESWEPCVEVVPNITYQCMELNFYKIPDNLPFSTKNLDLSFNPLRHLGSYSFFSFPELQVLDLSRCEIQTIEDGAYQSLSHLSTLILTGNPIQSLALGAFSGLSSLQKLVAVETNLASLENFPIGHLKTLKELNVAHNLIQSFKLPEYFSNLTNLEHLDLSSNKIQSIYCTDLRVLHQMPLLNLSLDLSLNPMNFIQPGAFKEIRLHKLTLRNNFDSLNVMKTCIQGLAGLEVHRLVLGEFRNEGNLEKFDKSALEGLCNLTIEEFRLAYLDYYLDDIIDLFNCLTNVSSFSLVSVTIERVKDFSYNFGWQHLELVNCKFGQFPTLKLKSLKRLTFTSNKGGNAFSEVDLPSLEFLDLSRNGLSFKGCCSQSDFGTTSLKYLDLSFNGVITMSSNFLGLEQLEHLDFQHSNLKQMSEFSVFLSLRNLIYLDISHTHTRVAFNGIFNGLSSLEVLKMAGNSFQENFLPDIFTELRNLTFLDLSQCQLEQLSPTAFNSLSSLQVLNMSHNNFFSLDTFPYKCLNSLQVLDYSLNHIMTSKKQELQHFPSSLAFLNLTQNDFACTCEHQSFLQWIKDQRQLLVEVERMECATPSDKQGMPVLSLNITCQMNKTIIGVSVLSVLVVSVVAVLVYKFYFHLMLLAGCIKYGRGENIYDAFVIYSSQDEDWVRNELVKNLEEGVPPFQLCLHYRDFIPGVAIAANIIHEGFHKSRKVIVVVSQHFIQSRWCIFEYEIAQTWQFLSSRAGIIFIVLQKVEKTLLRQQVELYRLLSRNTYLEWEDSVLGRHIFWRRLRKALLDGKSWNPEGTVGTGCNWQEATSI

Compound	Activity [1]	other results
O=C(CCN1C(=O)C2C3c4ccccc4C(c4ccccc43)C2C1=O)NC1CCCCCCC1 (stereo not drawn)	212.56 pg/mL	–
CC(C)CNC(=O)CCN1C(=O)C2C3c4ccccc4C(c4ccccc43)C2C1=O (stereo not drawn)	inactive	–
CC(=O)Nc1ccc(-c2ccc(N3C(=O)C4C5c6ccccc6C(c6ccccc65)C4C3=O)cc2)cc1 (stereo not drawn)	–	Activity [2]: 30%
Cc1ccc(CNC(=O)CCN2C(=O)C3C4c5ccccc5C(c5ccccc54)C3C2=O)cc1 (stereo not drawn)	5.76 pg/mL	Activity [3]: 50%; Activity [4]: Active
COc1ccc(CNC(=O)CCN2C(=O)C3C4c5ccccc5C(c5ccccc54)C3C2=O)cc1 (stereo not drawn)	219.76 pg/mL	Activity [5]: 50%; Activity [6]: Active
O=C(CCN1C(=O)C2C3c4ccccc4C(c4ccccc43)C2C1=O)NC1CCCCC1 (stereo not drawn)	inactive	–
O=C(CCN1C(=O)C2C3c4ccccc4C(c4ccccc43)C2C1=O)NCc1ccc(Cl)c(Cl)c1 (stereo not drawn)	inactive	Activity [7]: inactive
O=C(CCN1C(=O)C2C3c4ccccc4C(c4ccccc43)C2C1=O)NCc1ccccc1 (stereo not drawn)	inactive	Activity [8]: inactive
O=C(CCN1C(=O)C2C3c4ccccc4C(c4ccccc43)C2C1=O)NC1CCCCCC1 (stereo not drawn)	7.3 pg/mL	–
CC(C)(C)NC(=O)CCN1C(=O)C2C3c4ccccc4C(c4ccccc43)C2C1=O (stereo not drawn)	inactive	–
O=C(CCN1C(=O)C2C3c4ccccc4C(c4ccccc43)C2C1=O)NCc1ccc(Cl)cc1 (stereo not drawn)	0.725 pg/mL	Activity [9]: 50%
